Like-named read-outs stand apart in the source and are kept apart here. Each block holds one molecule with its values, some of them ahead of it.
Assays:
[1] = system: Mycosphaerella graminicola; anamorph: Septoria tritici (SEPTTR); assay: Leaf blotch of wheat (SEPTTR) whole-plant fungicidal test; format: in vivo; conditions: Zymoseptoria tritici, topical; for pest or weed control at 121.5 g/ha: low volume (track spray) application, 121.5 g/H; for pest or weed control at 100 ppm: high volume application
[2] = system: Puccinia triticina; synonym: Puccinia recondita f. sp. tritici (PUCCRT); assay: Wheat brown rust (PUCCRT) whole-plant fungicidal test; format: in vivo; conditions: topical; for pest or weed control at 121.5 g/ha: low volume (track spray) application, 121.5 g/H; for pest or weed control at 100 ppm: high volume application
[3] = 24 h, 1 Day Protectant, read-out: Low Volume activity at 121.5 g/H SEPTTR 1DP (% disease control rating)
[4] = 72 h, 3 Day Curative, read-out: Low Volume activity at 121.5 g/H SEPTTR 3DC (% disease control rating)
[5] = 24 h, 1 Day Protectant, read-out: Low Volume activity at 121.5 g/H PUCCRT 1DP (% disease control rating)
[6] = 72 h, 3 Day Curative, read-out: Low Volume activity at 121.5 g/H PUCCRT 3DC (% disease control rating)

- melting point: 221 to 224 °C
SMILES: CC(C)C[C@@H]1[C@@H](Cc2ccccc2)CCC[C@H](N)C(=O)O[C@H]1C.Cl

- melting point: 196 to 198 °C
SMILES: C[C@@H]1OC(=O)[C@@H](N)CCC[C@H](Cc2ccccc2)[C@H]1Cc1ccc(OC(F)(F)F)cc1.Cl

- melting point: 60 to 64 °C
SMILES: COc1ccnc(C(=O)N[C@H]2CCC[C@H](Cc3ccccc3)[C@@H](CC(C)C)[C@H](C)OC2=O)c1OCOC(C)=O [Compound 14]
- pest or weed control at 121.5 g/ha [1, 3]: > 70%
- pest or weed control at 121.5 g/ha [1, 4]: > 70%
- pest or weed control at 121.5 g/ha [2, 5]: > 70%
- pest or weed control at 121.5 g/ha [2, 6]: < 70%

- melting point: 98 to 100 °C
SMILES: COc1ccnc(C(=O)N[C@H]2CCC[C@H](Cc3ccc(Cl)cc3)[C@@H](Cc3ccccc3)[C@H](C)OC2=O)c1OCOC(C)=O [Compound 19]
- pest or weed control at 121.5 g/ha [1, 3]: > 70%
- pest or weed control at 121.5 g/ha [1, 4]: > 70%
- pest or weed control at 121.5 g/ha [2, 5]: > 70%
- pest or weed control at 121.5 g/ha [2, 6]: < 70%

- melting point: 73 to 76 °C
SMILES: COc1ccnc(C(=O)N[C@H]2CCC[C@H](Cc3ccccc3)[C@@H](CC(C)C)[C@H](C)OC2=O)c1O [Compound 77]

- melting point: 49 to 53 °C
SMILES: COc1ccnc(C(=O)N[C@H]2CCC[C@H](CCCc3ccccc3)[C@@H](Cc3ccc(OC(F)(F)F)cc3)[C@H](C)OC2=O)c1O [Compound 93]
- pest or weed control at 100 ppm ([1]; 24 h, 1 Day Protectant, read-out: High Volume activity at 100 ppm SEPTTR 1DP (% disease control rating)): < 70%
- pest or weed control at 100 ppm ([1]; 72 h, 3 Day Curative, read-out: High Volume activity at 100 ppm SEPTTR 3DC (% disease control rating)): < 70%
- pest or weed control at 100 ppm ([2]; 24 h, 1 Day Protectant, read-out: High Volume activity at 100 ppm PUCCRT 1DP (% disease control rating)): < 70%
- pest or weed control at 100 ppm ([2]; 72 h, 3 Day Curative, read-out: High Volume activity at 100 ppm PUCCRT 3DC (% disease control rating)): < 70%

- melting point: 65 to 67 °C
SMILES: C[C@@H]1OC(=O)[C@@H](NC(=O)OC(C)(C)C)CCC[C@H](Cc2ccc(C(F)(F)F)cc2)[C@H]1Cc1ccc(OC(F)(F)F)cc1 [Compound 152]
